Experimental data from US9910031B2, “Compositions and methods for modulating c-Rel-dependent cytokine production” (Synta Pharmaceuticals Corporation, priority 2003, dated 2018).

Experiments:
[1] = system: IL-12 p35 mRNA; assay: Northern blot of IL-12 p35 mRNA in IFN-γ/SAC-stimulated human PBMC; assay type: cell-based; conditions: hPBMC
Method: (§1) Northern blot analysis was performed to examine the mRNA levels of IL-12 p35 and p40. Human PBMC and the human monocyte cell line THP-1 cells were stimulated with IFN-γ/SAC in the presence or absence of Compound 1. Human PBMC were isolated by centrifugation using Ficoll-Paque (Pharmacia Biotech, Uppsala, Sweden) and prepared in RPMI medium supplemented with 10% fetal calf serum (FCS), 100 U/ml penicillin, and 100 μg/ml streptomycin, in a 96-well plate with 5×10^5 cells/well. The cells were then primed with IFN-γ (100 U/ml) and followed by 0.01% SAC or 1 μg/ml LPS, in the presence of different concentrations of Compound 2 or other compounds. The test compounds were prepared in DMSO and the final DMSO concentration was adjusted to 0.25% in all cultures, including the compound-free control. Cell-free supernatants were taken 18 h later for the measurement of cytokines. The THP-1 cells were obtained from American Type Culture Collection (Manassas, Va.) and were cultured in RPMI 1640 (ATCC, Manassas, Va.), supplemented with 10% FCS (ATCC, Manassas, Va.), and 1% penicillin/Streptomycin (Gibco-BRL, New York, N.Y.). Total RNA was isolated and subjected to Northern blot analysis using IL-12 p35 and p40 cDNA probes. We first examined the kinetics of mRNA accumulation in cultures of hPBMC and THP-1 cells primed with IFN-γ followed by SAC stimulation in the presence or absence of 1 μM Compound 1.
We conducted a dose-response study of the inhibitory effects of Compound 1 on IL-12 mRNA expression in IFN-γ/SAC-stimulated hPBMC. Because both IL-12 p35 and p40 mRNA levels were maximal at 6 h after the addition of SAC, this time point was selected for the dose-response analysis.

[2] = system: IL-12 p35 mRNA; assay: Northern blot of IL-12 p35 mRNA in IFN-γ/SAC-stimulated THP-1 cells; assay type: cell-based, human; conditions: THP-1, IFN-γ/SAC, 1 μM Compound 1
Method: as §1

[3] = system: IL-12 p70; assay: Inhibition of production of IL-12 p70 protein; assay type: cell-based, human; conditions: Homo sapiens; 1 μM Compound 1; 10 mM ASA; read-out: percent inhibition of production of IL-12 p70 protein
Method: Cells were co-transfected with the vector pCMV (BD Biosciences Clontech) in which the constitutively active CMV promoter directs β-galactosidase expression for the monitoring of transfection efficiency. Luciferase and β-galactosidase activity were determined in cell extracts prepared according to the Luciferase assay system (Promega) and Luminescent n-gal Detection system (BD Biosciences Clontech). Luciferase activity was then normalized using the β-galactosidase value. […] ELISA was performed by the following method. Human IL-12 p70 (heterodimer) was assayed using ELI-PAIR kit from Cell Sciences (Norwood, Mass.), according to the manufacturer's instructions. Human IL-12 p40 was assayed using ELISA kit from Cell Sciences (Norwood, Mass.) according to the manufacturer's instructions.
The extracts obtained from this process were used in gel-shift assays using oligonucleotides containing the NFκB target sequence corresponding to the region −121 to −102 from the transcription initiation site of IL-12 p40 or a mutated NFκB binding site. […] This interaction was specific as it was competed away by an excess of unlabeled probe, but not by a mutated oligonucleotide in which two base-pairs were substituted. […] This is expected since a compound that potently blocks NFkB have a far broader cytokine inhibitory profile than Compound 1/Compound 2.

[4] = system: IL-12 p40; assay: IL-12 p40 production in human monocyte-derived dendritic cells; assay type: cell-based; conditions: up to 10 μM
Method: Although c-Rel has a role in the expression of both p35 and p40 in monocytes and macrophages as well as p35 in dendritic cells (DCs), p40 expression in dendritic cells is c-Rel-independent (Grumont et al. J. Exp. Med. 2001; 194:1021-1031). If Compound 2 is acting through c-Rel, this drug should inhibit both p40 and p70 production by PBMCs. However, Compound 2 should inhibit the production of p70 (through inhibition of p35) in DCs, but should not inhibit p40 in DCs. This was tested by generating monocyte-derived dendritic cells according to the following method. Human PBMC at 1×10^7 cells/ml were suspended in serum-free DMEM and incubated for 2 hrs at 37° C. under 5% CO2. The non-adherent cells then were removed by washing with PBS. The adherent cells were cultured in RPMI-1640 medium containing rhIL-4 (100 U/ml) and rhGM-CSF (1000 U/ml) for 6-7 days. The half volume fresh media and full-volume fresh cytokines were added every other day. The cells were then primed with IFN-γ (100 U/ml) and followed by 0.01% SAC or 1 μg/ml LPS, in the presence of different concentrations of Compound 2 or other compounds. The test compounds were prepared in DMSO and the final DMSO concentration was adjusted to 0.25% in all cultures, including the compound-free control. Cell-free supernatants were taken 18 h later for the measurement of cytokines.

SMILES: C(=NNc1nc(OCCc2ccccn2)nc(N2CCOCC2)n1)c1c[nH]c2ccccc12 [Compound 1, N-(1H-indol-3-ylmethylene)-N′-[4-morpholin-4-yl-6-(2-pyridin-2-yl-ethoxy)-[1,3,5]triazin-2-yl]-hydrazine]
- IC50 ([1]; Homo sapiens, PBMC, 6 h after SAC, read-out: IC50, IL-12 p35 mRNA accumulation): < 1 nM
- expression of p35 mRNA ([1]; 1 μM Compound 1, all sampling times): completely inhibited
- induction of IL-12 p35 mRNA accumulation ([1]; 6 h after SAC, 3 nM): completely reversed
- IL-12 p35 mRNA [2]: undetectable
- inhibition at 1 µM [3]: 97%

SMILES: Cc1cccc(C=NNc2cc(N3CCOCC3)nc(OCCc3ccccn3)n2)c1 [Compound 2, N-(3-methyl-benzylidene)-N′-[6-morpholin-4-yl-2-(2-pyridin-2-yl-ethoxy)-pyrimidin-4-yl]-hydrazine]
- p40 production in human DCs [4]: no inhibition
